Test results: the CheMixHub ionic liquid set

Assay: xn = mol fraction of the nth substance listed

O=S(=O)([N-]S(=O)(=O)C(F)(F)F)C(F)(F)F.[Li+] + CC[n+]1ccn(C)c1.O=S(=O)([N-]S(=O)(=O)C(F)(F)F)C(F)(F)F + O
Conditions | electrical conductivity [S/m] | viscosity [mPa·s]
283 K, 101 kPa, x1 = 0.2649, x2 = 0 | 0.62 | –
283 K, 101 kPa, x1 = 0.2649, x2 = 0.2649 | 0.37 | 90.3
283 K, 101 kPa, x1 = 0.4189, x2 = 0.2649 | 0.049 | –
293 K, 101 kPa, x1 = 0.2649, x2 = 0 | 0.89 | 69.2
293 K, 101 kPa, x1 = 0.2649, x2 = 0.2649 | 0.56 | 55
293 K, 101 kPa, x1 = 0.4189, x2 = 0.2649 | 0.093 | 407
293.15 K, 100 kPa, x1 = 0.2745, x2 = 0.3509 | – | 55.7
293.15 K, 100 kPa, x1 = 0.3106, x2 = 0.3509 | – | 71.5
293.15 K, 100 kPa, x1 = 0.3509, x2 = 0.3509 | – | 111
293.15 K, 100 kPa, x1 = 0.3868, x2 = 0.3509 | – | 157
293.15 K, 100 kPa, x1 = 0.4189, x2 = 0.3509 | – | 220
293.15 K, 100 kPa, x1 = 0.4478, x2 = 0.3509 | – | 312
293.15 K, 100 kPa, x1 = 0.474, x2 = 0.3509 | – | 470
293.15 K, 100 kPa, x1 = 0.4978, x2 = 0.3509 | – | 715
298.1 K, 101 kPa, x1 = 0.2649, x2 = 0 | 1.04 | 55.3
298.1 K, 101 kPa, x1 = 0.2649, x2 = 0.2649 | 0.67 | 44.2
298.1 K, 101 kPa, x1 = 0.4189, x2 = 0.2649 | 0.12 | 293
298.15 K, 100 kPa, x1 = 0.2745, x2 = 0.3509 | – | 43.1
298.15 K, 100 kPa, x1 = 0.3106, x2 = 0.3509 | – | 55.3
298.15 K, 100 kPa, x1 = 0.3509, x2 = 0.3509 | – | 86.4
298.15 K, 100 kPa, x1 = 0.3868, x2 = 0.3509 | – | 120
298.15 K, 100 kPa, x1 = 0.4189, x2 = 0.3509 | – | 164
298.15 K, 100 kPa, x1 = 0.4478, x2 = 0.3509 | – | 227
298.15 K, 100 kPa, x1 = 0.474, x2 = 0.3509 | – | 336
298.15 K, 100 kPa, x1 = 0.4978, x2 = 0.3509 | – | 497
303 K, 101 kPa, x1 = 0.2649, x2 = 0 | 1.22 | 45.4
303 K, 101 kPa, x1 = 0.2649, x2 = 0.2649 | 0.8 | 36
303 K, 101 kPa, x1 = 0.4189, x2 = 0.2649 | 0.16 | 216
303.15 K, 100 kPa, x1 = 0.2745, x2 = 0.3509 | – | 34.6
303.15 K, 100 kPa, x1 = 0.3106, x2 = 0.3509 | – | 44.4
303.15 K, 100 kPa, x1 = 0.3509, x2 = 0.3509 | – | 62.3
303.15 K, 100 kPa, x1 = 0.3868, x2 = 0.3509 | – | 92.4
303.15 K, 100 kPa, x1 = 0.4189, x2 = 0.3509 | – | 126
303.15 K, 100 kPa, x1 = 0.4478, x2 = 0.3509 | – | 171
303.15 K, 100 kPa, x1 = 0.474, x2 = 0.3509 | – | 245
303.15 K, 100 kPa, x1 = 0.4978, x2 = 0.3509 | – | 356
313 K, 101 kPa, x1 = 0.2649, x2 = 0 | 1.6 | 30.9
313 K, 101 kPa, x1 = 0.2649, x2 = 0.2649 | 1.1 | 24.9
313 K, 101 kPa, x1 = 0.4189, x2 = 0.2649 | 0.25 | 125
313.15 K, 100 kPa, x1 = 0.2745, x2 = 0.3509 | – | 23.4
313.15 K, 100 kPa, x1 = 0.3106, x2 = 0.3509 | – | 30.1
313.15 K, 100 kPa, x1 = 0.3509, x2 = 0.3509 | – | 41.2
313.15 K, 100 kPa, x1 = 0.3868, x2 = 0.3509 | – | 57.6
313.15 K, 100 kPa, x1 = 0.4189, x2 = 0.3509 | – | 78.2
313.15 K, 100 kPa, x1 = 0.4478, x2 = 0.3509 | – | 102
313.15 K, 100 kPa, x1 = 0.474, x2 = 0.3509 | – | 142
313.15 K, 100 kPa, x1 = 0.4978, x2 = 0.3509 | – | 197
323 K, 101 kPa, x1 = 0.2649, x2 = 0 | 2.04 | 21.8
323 K, 101 kPa, x1 = 0.2649, x2 = 0.2649 | 1.45 | 18.2
323 K, 101 kPa, x1 = 0.4189, x2 = 0.2649 | 0.38 | 78.5
323.15 K, 100 kPa, x1 = 0.2745, x2 = 0.3509 | – | 16.7
323.15 K, 100 kPa, x1 = 0.3106, x2 = 0.3509 | – | 21.4
323.15 K, 100 kPa, x1 = 0.3509, x2 = 0.3509 | – | 29
323.15 K, 100 kPa, x1 = 0.3868, x2 = 0.3509 | – | 39
323.15 K, 100 kPa, x1 = 0.4189, x2 = 0.3509 | – | 50.9
323.15 K, 100 kPa, x1 = 0.4478, x2 = 0.3509 | – | 61.3
323.15 K, 100 kPa, x1 = 0.474, x2 = 0.3509 | – | 89.2
323.15 K, 100 kPa, x1 = 0.4978, x2 = 0.3509 | – | 120
333 K, 101 kPa, x1 = 0.2649, x2 = 0 | 2.58 | 16.2
333 K, 101 kPa, x1 = 0.2649, x2 = 0.2649 | 1.83 | 13.8
333 K, 101 kPa, x1 = 0.4189, x2 = 0.2649 | 0.53 | 51.9
333.15 K, 100 kPa, x1 = 0.2745, x2 = 0.3509 | – | 12.4
333.15 K, 100 kPa, x1 = 0.3106, x2 = 0.3509 | – | 15.9
333.15 K, 100 kPa, x1 = 0.3509, x2 = 0.3509 | – | 20.1
333.15 K, 100 kPa, x1 = 0.3868, x2 = 0.3509 | – | 26.2
333.15 K, 100 kPa, x1 = 0.4189, x2 = 0.3509 | – | 34.2
333.15 K, 100 kPa, x1 = 0.4478, x2 = 0.3509 | – | 41.8
333.15 K, 100 kPa, x1 = 0.474, x2 = 0.3509 | – | 53.7
333.15 K, 100 kPa, x1 = 0.4978, x2 = 0.3509 | – | 78.1
343.15 K, 100 kPa, x1 = 0.2745, x2 = 0.3509 | – | 9.49
343.15 K, 100 kPa, x1 = 0.3106, x2 = 0.3509 | – | 12.2
343.15 K, 100 kPa, x1 = 0.3509, x2 = 0.3509 | – | 15.2
343.15 K, 100 kPa, x1 = 0.3868, x2 = 0.3509 | – | 19.1
343.15 K, 100 kPa, x1 = 0.4189, x2 = 0.3509 | – | 24.5
343.15 K, 100 kPa, x1 = 0.4478, x2 = 0.3509 | – | 29.6
343.15 K, 100 kPa, x1 = 0.474, x2 = 0.3509 | – | 37.2
343.15 K, 100 kPa, x1 = 0.4978, x2 = 0.3509 | – | 49.7
353.15 K, 100 kPa, x1 = 0.2745, x2 = 0.3509 | – | 7.49
353.15 K, 100 kPa, x1 = 0.3106, x2 = 0.3509 | – | 9.62
353.15 K, 100 kPa, x1 = 0.3509, x2 = 0.3509 | – | 11.8
353.15 K, 100 kPa, x1 = 0.3868, x2 = 0.3509 | – | 14.5
353.15 K, 100 kPa, x1 = 0.4189, x2 = 0.3509 | – | 18.4
353.15 K, 100 kPa, x1 = 0.4478, x2 = 0.3509 | – | 21.9
353.15 K, 100 kPa, x1 = 0.474, x2 = 0.3509 | – | 27
353.15 K, 100 kPa, x1 = 0.4978, x2 = 0.3509 | – | 35
363.15 K, 100 kPa, x1 = 0.2745, x2 = 0.3509 | – | 6.01
363.15 K, 100 kPa, x1 = 0.3106, x2 = 0.3509 | – | 7.72
363.15 K, 100 kPa, x1 = 0.3509, x2 = 0.3509 | – | 9.69
363.15 K, 100 kPa, x1 = 0.3868, x2 = 0.3509 | – | 11.3
363.15 K, 100 kPa, x1 = 0.4189, x2 = 0.3509 | – | 14.2
363.15 K, 100 kPa, x1 = 0.4478, x2 = 0.3509 | – | 16.6
363.15 K, 100 kPa, x1 = 0.474, x2 = 0.3509 | – | 20.3
363.15 K, 100 kPa, x1 = 0.4978, x2 = 0.3509 | – | 25.7

CS(=O)(=O)[O-].C[N+](C)(CCO)CCO + CO
viscosity [mPa·s], 101 kPa
Conditions | x1 = 0.1 | x1 = 0.1996 | x1 = 0.3001 | x1 = 0.4004 | x1 = 0.5005 | x1 = 0.5976 | x1 = 0.7022 | x1 = 0.8012 | x1 = 0.9012 | x1 = 1
298.15 K | 2.03 | 5.81 | 14.8 | 34.4 | 74.1 | 164 | 316 | 566 | 940 | 1495
303.15 K | 1.85 | 5.12 | 12.57 | 28.1 | 58.3 | 125.1 | 231 | 402 | 656 | 1021
308.15 K | 1.69 | 4.55 | 10.99 | 23.3 | 46.7 | 86.6 | 175 | 296 | 469 | 716
313.15 K | 1.55 | 4.06 | 9.61 | 19.6 | 38 | 68.4 | 134.1 | 222 | 344 | 513
318.15 K | 1.431 | 3.64 | 8.35 | 16.6 | 31.3 | 54.9 | 105.2 | 170 | 258 | 378
323.15 K | 1.323 | 3.29 | 7.37 | 14.24 | 26.1 | 44.7 | 75.7 | 132.2 | 197 | 282

O=S(=O)([N-]S(=O)(=O)C(F)(F)F)C(F)(F)F.[Li+] + COC(=O)OC + CCC1COC(=O)O1
Conditions | viscosity [mPa·s]
298.15 K, 100 kPa, x1 = 0.333, x2 = 0.667 | 53.7
